# Laboratory results reported in patent US20140099354A1, “BIOPASSIVATING MEMBRANE STABILIZATION BY MEANS OF NITROCARBOXYLIC ACID-CONTAINING PHOSPHOLIPIDS IN PREPARATIONS AND COATINGS” (priority 2011, published 2014).
# Assays:
# [1] = system: ovarian tissue strips; assay: Cryopreservation of ovarian tissue strips: intact follicles; settings: liquid nitrogen 14 days, cultured 14 days
# Experimental: Ovar ectomy was performed in female sheep; resected tissues were cut into 60 ovarian tissue strips. The ovarian strips were either cultured directly (n=4) or prepared with a usual solution for vitrification (VS group; Vitrification Kit, Sage, USA) or incubated with nitrated PLs (NPL group). For this purpose, the tissue strips were bathed in an equibrilation solution (ART-8025-A) which consisted of MOPS-buffered amino acids and gentamicin sulfate (10 mg/l), and 7.5% (v/v) of each DMSO and ethylene glycol and 12 mg/ml human serum albumin for 30 minutes. Thereafter the strips of the VS group were placed in the vitrification solution (ART-8025-B), which is a MOPS-buffered solution containing amino acids and gentamicin sulfate, that contain 15% (v/v) each DMSO and ethylenglycol, 12 mg/ml human albumin and 0.6 M sucrose. The strips of the NPL group were placed in a solution containing 25% (v/v) nitrated PL SNOPC or PNLPC in a PBS-buffered 1% DMSO solution containing 5% human albumin for 60 minutes. The treated tissue strips were then immersed into liquid nitrogen and kept here for 14 days. Then removal and warming of the tissue pieces was performed in AIM-V medium (Gibco, Invitrogen) in a sterile culture dish, first up to 5° C. within 20 minutes, then heated further in a water bath up to 37° C., within the following 60 minutes. The culture medium was replaced and specimens cultured for 14 days. After this, the tissue pieces were fixed, embedded in paraffin and cut, followed by histological examination. […] The total number of intact follicles in the control group was taken as a reference to the number of follicles in the cryopreserved groups.
# The culture medium has been exchanged by every 2nd day; samples for hormone analysis were taken and frozen at that time. Determination of 17 β-estradiol and progesterone were performed with a radio-immuno assay (diagnostic systems laboratories, USA).
# [2] = system: human umbilical venous endothelial cells (HUVEC); assay: Endothelial cell homing on coated cobalt-chromium metal grids; assay type: cell-based; settings: days 3, 7 and 14
# Experimental: To investigate the cell homing of endothelial cells onto phospholipid-coated artificial surfaces, metal grids with a cobalt-chromium alloy such as has been described in example 2 were coated. Coatings were performed with nitro-carboxylic acid-containing phosphatidylcholine according to the examples N2-N6 and O6. These were special product mixtures of different esterified 1,2-di(nitro linoleoyl)-sn-glycero-3-phosphatidylcholines (N2), from different esterified 1,2-di(nitro arachidonoyl)-sn-glycero-3-phosphatidylcholines (N3), from different esterified 1,2-di(nitroarachidonoyl)-sn-glycero-3-phosphatidylcholines (N4), different esterified 1,2-di(nitro-γ-linolenoyl)-sn-glycero-3-phosphatidylcholines (N5) or different esterified 1,2-di(nitro-DHA)-sn-glycero-3-phosphatidylcholines (N6) and mixture of 1-palmitoyl-2-(10-hydroxy-9-nitro-α-linolenoyl)-sn-3-glycero-phosphocholine and 1-palmitoyl-2-(9-hydroxy-10-nitro-α-linolenoyl)-sn-3-glycero-phosphocholine (06). Uncoated metal grids served as controls. The grids were placed in a culture dish containing a gel matrix on which human umbilical venous endothelial cells (HUVEC) were grown to confluence. The culture media consisted of 5% FCS, and was changed every second day. Cultivation was performed according to standard procedures. The culture dishes were carefully washed superficially several times after 3, 7, and 14 days with saline. […]
# [3] = system: sciatic nerve; assay: Viability of cryopreserved nerve grafts (Annexin-V staining, FACS); assay type: cell-based, rats; settings: 100 mmolar solution 1 hour; −30° C. 72 hours
# Experimental: The sciatic nerve was prepared and sectured in anesthetized rats. The nerve pieces were freed from connective tissue and divided into 3 parts. Specimens were placed in culture DMEM medium containing low a concentration of glucose (1 g/L) with L-glutamine (PAA, Pasching Austria) for 24 hours. […] Nerve specimens from the same animals that received no pretreatment served as controls. After incubation, the specimens were cultured for 24 hours. In a further control group, specimens were cryopreserved without any pretreatment. The specimens were covered with a sterile gauze pad moistened with culture medium. Thereafter the temperature was gradually cooled to −30° C. After 72 hours, the nerve pieces were gradually rewarmed to 37° C. After this, renewed culturing was done for 48 hours. The nerve pieces were dissected enzymatically then (collagenase A and D, Roche, Mannheim, Germany) followed by a mechanical separation through multiple uptake and release in a glass pipette. The isolated cells were washed and marked with a living/death staining (Annexin-V-Fluos staining Kit, Roche Diagnostics, Mannheim, Germany) and quantified using FACS analysis. The number of living cells identified was set in relation to the total cells count.
# [4] = Transisomerization of unsaturated fatty acids in coatings on balloon catheters (FTIR); assay type: physicochemical
# Excerpt: The natural phospholipids POPC and SLPE, as well as the analogous nitrated phospholipids as shown in example C(PNOPC) and […]), as well as the phospholipids according to examples […], and S as a mono substance and as a combination of the native phospholipids and the corresponding nitro-carboxylic acid (s)-containing phospholipids mixed in a ratio of 1:1 were used for this investigation. Balloon catheters were coated by means of the Langmuir-Schaefer procedure where the balloon segment was aligned longitudinally and coaxial to the solution surface, dipping into the liquid for approx. 1 mm over the entire length. Then the catheter was slowly rotated around its axis 5 times. […] The solution was cooled and given to the coating solution then. In case of incomplete dissolution of the phospholipids or if they separated when cooled, DMSO was added at a concentration of up to 20 vol.-%, preferably up to 10 vol.-%. After coating, the catheters were vacuum dried for 8 hours in order to remove residual solvent. The abrasion or loss of coating layers was determined by weighing the catheter before and after coating as well as after the mechanical stability test in the tubing system as described above using a high precision balance. In order to examine the long-term stability of the coating, catheters coated with phospholipids were sealed with polyethylene glycol 1000 (Roth, Germany). For that purpose PEG 1000 was melted and mixed with a 10% ethanol solution at 50° C. A portion of the phospholipid-coated balloon catheter was coated by means of dip-coating in this PEG solution at 50° C., and dried thereafter for 8 hours. Stability of cis-conformity of unsaturated fatty acids of the phospholipids investigated was determined after heat treatment at 60° C. for three hours in a heating cabinet. After 24 hours and after 2 months the phospholipids coated on the balloon surface were detached and analyzed. Detachment was carried out in 50 ml of a chloroform:methanol mixture (3:1, v: v). A 10 μl aliquot was used for a FTIR spectroscopy. For this purpose the samples were dropped on a ZnSe ATR crystal and then the solvent was evaporated. Degree of transisomerization was determined using the integral of intensity of proton resonance in comparison to that measured from a cis configuration of the reference substances. Measurements were performed 24 hours after coating, heat treatment and after 2 months of storage at 25° C. under sterile room air conditions.
# [5] = system: HeLa, HUVEC and L929 fibroblast; assay: cells; assay type: cell-based; settings: tested concentrations 10 μmol to 1 mmol; EC50 could not be calculated
# Experimental: (§1) Physiologically occurring phospholipids can be taken up by virtually all cell lines in large quantities. It is known that phospholipids that contain non-physiologically occurring fatty acid residues can cause cell lyses or death. Three cell lines (HeLa, HUVEC and L929 fibroblast) were cultured in a suitable culture medium of 5% FCS at 37° C. and 5% CO2 concentrations to a subconfluent concentration of 1.5×10^5 cells.
# SOPC, DOPC, POPC, ONOPC, PNLPC, and the free fatty acids of OA, LA, NOOA, and NOLA were dissolved in 0.5% DMSO. […] Cell cultures were incubated for 24 h and 48 h. Thereafter, the culture medium was removed and the cells washed twice. Following this, cells suspensions were given in four vials to perform the following analysis:
# For the determination of viability, phenol red was added to the suspended cells. After 4 h, the medium was renewed and 10 μl of the MTT solution was added. The cells were cultured for 4 hours, and then a 10% SDS solution was pipetted. After 24 h, absorption of formazan crystals was measured at 500 nm using a power wave X (bio-tek instruments, Inc., USA). For the quantitative comparison of toxicity, the EC50 was determined.
# [6] = system: HeLa, HUVEC and L929 fibroblast; assay: Cell viability with the live/dead assay; assay type: cell-based
# Experimental: as §1
# (§2) SOPC, DOPC, POPC, ONOPC, PNLPC, and the free fatty acids of OA, LA, NOOA, and NOLA were dissolved in 0.5% DMSO. Experiments were performed also with nitro-carboxylic acid-containing phospholipids according to examples N15-N20, G, O3, O5, P2, P5, P8, P9, P11 and Q. PL prepared as aqueous suspensions were added the culture flasks in order to achieve PL concentrations in the culture medium from 10 μmol to 1 mmol. Cell cultures were incubated for 24 h and 48 h. Thereafter, the culture medium was removed and the cells washed twice. Following this, cells suspensions were given in four vials to perform the following analysis:
# Studies of cell viability were carried out with the live/dead assay (Molecular Probes). For this purpose, the cells were washed twice with PBS solution and then seeded into a culture medium. Incubation with the staining solution (in 0.1% DMSO) was carried out over 30 minutes in the dark. The viability analyses were performed using fluorescence microscopy.
# [7] = system: HeLa, HUVEC and L929 fibroblast; assay: Volumetric measurement of cells (Coulter counter); assay type: cell-based; settings: time-dependent increase after incubation
# Experimental: as §1, §2
# Volumetric measurement of cells was done in a Histopenz (Sigma) solution with an effective NaCl concentration of 0.9% (approximately 290 mOsm) heated to 37° C. in which the cells were suspended; thereafter the solution was sonified for 2 minutes. Measurements were done using a Coulter counter Z2.
# [8] = system: Cardiac muscle cells derived from neonatal rat heart; assay: Hypoxia of cardiac muscle cells (viability, mitochondrial NAD+); assay type: cell-based; set-up: loss of viability of heart muscle cells after hypoxia: concentration or dose not given beside the values; settings: for mitochondrial NAD+ content: hypoxia, baseline 5
# Experimental: Cardiac muscle cells derived from neonatal rat heart (Nitobe J, et al, Reactive oxygene species regulate FLICE inhibitory protein and susceptibility to FAS-mediated apoptosis in cardiac myocytes. Cardiovasc RES 2003, 119-28). The heart muscle cells were cultured in Dulbecco/Eagle medium (DMEM) with 10% FCS added under standard conditions for two days. Incubation with the natural and nitrated phospholipids, as well as the hypoxia experiments were carried out as described above. Incubated cells were grown in culture medium under standard conditions for 24 hours. This is followed by a vitality staining as described above. […] The frozen cells were thawed up to -4° C. and homogenized for subsequent NAD^+ analyses. By means of differential centrifuge, pellets containing mitochondria were separated (Di Lisa, et al, 1993; Am. J. Physiol. 264, […]-[…]). The NAD^+ content was determined by fluoroscopy, and normalized to the protein content (Veloso, D., and […]., 1974;) Anal. Biochem., 449-450).
# [9] = system: cortical neurons; assay: Hypoxia and reperfusion of cortical neurons (viability, LDH)
# Experimental: To determine whether the membrane-stabilizing properties of nitrated phospholipids can lead to attenuation of effects due to an ischemic event or the re-perfusion damage, cortical neurons and cardiac myocytes were investigated.
# Freshly prepared cortex tissue was separated with Papain and tissue suspensions were cultured in culture vessels (Prim ARA; BD Biosciences, USA) with Neurobasal A/B27 medium (Invitrogen) for 10-12 days. Cell suspensions were divided, and replenished with suspensions of the natural phospholipids SOPC and PLPC, as well as the analogue phospholipids with nitration of unsaturated fatty acids (1-stearoyl-2-(9-nitrooleoyl)-sn-PC and 1-palmitoyl-2-(9-nitrolinoleoyl)-sn-PC) at concentrations of 10 to 50 μmol/l in NaCl (0.9%) were added. […] After 4 hours, the cells were washed three times with buffered saline and buffered NaCl solution with the addition of MgCl2 and CaCl2 in an anaerobic atmosphere (85% N2, 5% O2, 10% CO2; at 35° C.) for 10 and 30 minutes. Then, the cells were washed once and grown in culture medium under aerobic conditions for 24 hours. […] Cells were stained with annexin V-FITC and propidium iodide (Molecular probes, USA). The vital and necrotic cells were measured by flow cytometry (FACSCalibur, Becton & Dickinson). The volume of culture medium was determined and an aliquot was taken for determination of the LDH (lactate dehydrogenase) concentration.
# [10] = biological target: Glycophorin A (GpA) peptides (Homo sapiens, UniProt P02724); settings: 10-50% (mol/mol) admixed to DSPC vesicles; versus native phospholipids
# Chain of Glycophorin A (GpA) peptides (P02724 92-114 limits assumed, species assumed): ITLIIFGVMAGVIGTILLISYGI
# Experimental: The change of the Frster resonance energy transfer (FRET) of fluorescence-labelled peptides with α helical trans-membrane structure in a double lipid layer can be used for determination of the concentration of monomeric and dimeric trans-membrane helices and for quantitative determination of helix-helix interactions.
# FRET measurements were carried out with fluorescence-marked Glycophorin A (GpA) peptides. The transmembrane GpA forms dimers, whereby the energy transfer can be measured. 5-carboxyfluorescein and tetramethyl-6-carboxyrhodamine were used as chromophores.
# Degree of dimerization of the model protein was measured in a direct comparison between native phospholipids and the corresponding phospholipids with a nitrated alkyl chain for the given concentrations of phospholipids (10-50%, mol/mol) admixed to the DSPC vesicles.
# For determination of the dimerization, the peptides of FL GpAwt and TAMRA GpAwt were weighed and dissolved in TFE. The measurements were carried out on a fluorescence spectrometer of type Aminco Bowman series 2 (Thermo Spectronic).
molecule,measurement,setting,value
"1,2-di-(nitrolinoleoyl)-sn-glycero-3-phosphatidylcholines [Example N2]",rate of intact follicles relative to the control group,[1],94%
same,endothelial cell coverage and growth on coated struts,[2],slight tendency for a stronger growth of cells
same,proportion of living cells relative to non-frozen control,[3],79%
"1,2-di-(nitro-DHA)-sn-glycero-3-phosphatidylcholines [Example N6]",rate of intact follicles relative to the control group,[1],92%
same,endothelial cell coverage and growth on coated struts,[2],slight tendency for a stronger growth of cells
same,proportion of living cells relative to non-frozen control,[3],72%
"CCCCCCCC/C=C\CCCCCCCC(=O)O[C@H](COC(=O)CCCCCCCCCCCCCCC)COP(=O)([O-])OCC[N+](C)(C)C [POPC, 1-Palmitoyl-2-oleoyl-sn-glycero-3-PC, reference compound]",proportion of trans-fatty acids,"[4]; after heat treatment (60° C., three hours)",80%
same,degree of transisomerization,[4]; coatings after 2 months,95%
same,degree of transisomerization,"[4]; top coating with PEG, after 2 month",86%
same,viability as quantified by the MTT assay,[5],only slightly decreased
same,viability according to the live/dead staining,[6],high rate of viability
same,cell volume (increase in size to),[7],160%
"CCCCCCCC/C=C\CCCCCCCC(=O)O[C@H](COC(=O)CCCCCCCCCCCCCCCCC)COP(=O)([O-])OCC[N+](C)(C)C [SOPC, 1-Stearoyl-2-oleoyl-sn-glycero-3-PC, reference compound]",viability as quantified by the MTT assay,[5],only slightly decreased
same,viability according to the live/dead staining,[6],high rate of viability
same,cell volume (increase in size to),[7],150%
same,loss of viability of heart muscle cells after hypoxia,[8]; (10 minutes),14%
same,loss of viability of heart muscle cells after hypoxia,[8]; (30 minutes),40%
same,mitochondrial NAD+ content,[8]; first printed value,3.0 nmol/mg protein
same,mitochondrial NAD+ content,[8]; second printed value,1.1 nmol/mg protein
same,increase in LDH versus normoxemia culture,[9]; 10-minutes ischemia,280 fold
same,viability of cortical cells measured after 24 hours,[9]; 10-minutes ischemia,33%
same,increase in LDH versus normoxemia culture,[9]; 30-minutes ischemia,640 fold
same,viability of cortical cells measured after 24 hours,[9]; 30-minutes ischemia,0%
same,proportion of living cells relative to non-frozen control,[3],26%
"CCCCC/C=C\C/C=C(\CCCCCCCC(=O)O[C@H](COC(=O)CCCCCCCCCCCCCCCCC)COP(=O)([O-])OCC[N+](C)(C)C)[N+](=O)[O-] [Example P13, 1-stearoyl-2-(E-9-nitrolinoleoyl)-sn-3-glycerophosphocholine]",degree of dimerization of the model membrane protein,[10],significantly greater reduction of dimerization
